The text below walks through data of patent US8410302B2, “Methoxyimino compounds and fungicide composition comprising same” (Kyung Nong Corporation, priority 2007, dated 2013).

The subject of assay [1] is Botrytis cinerae. The assay can be described thus: Fungicidal activity against cucumber gray mold rot (CGM) disease, control value. It counts as in vivo. The following applies: for CGM control value (C.V.) / pest or weed control at 100 ppm: 100 ppm. The protocol: Botrytis cinerae, which was isolated from cucumber infected thereby, was inoculated on a potato agar medium (PEC) and cultured under a 12L/12D cycle at 25° C. for 15 days to form spore. The spores were scraped, filtered through a gauze and then suspended in Potato Dextrose broth at a concentration of 1×10^6 spore/ml. The spore suspension was sprayed on a cucumber plant having one leaf. The cucumber plant was held in a humidified room at 20° C. for 3 days. L.A. on a leaf was measured to calculate a C.V.

Assay [2] deals with Puccinia recondita. Put plainly: Fungicidal activity against wheat leaf rust (WLR) disease, control value. The conditions noted are these: for pest or weed control at 2 ppm / pest or weed control at 10 ppm / pest or weed control at 50 ppm / pest or weed control at 100 ppm: read-out: WLR control value (C.V.). It counts as in vivo.
The subject of assay [3] is Phytophthora infestans. The assay can be described thus: whole plant or invertebrate. It counts as in vivo. The following applies: for TLB control value (C.V.): tomato late blight; for pest or weed control at 2 ppm / pest or weed control at 10 ppm / pest or weed control at 50 ppm / pest or weed control at 100 ppm: Phytophthora infestans, in Solanum lycopersicum, read-out: TLB control value (C.V.).

The subject of assay [4] is Erysiphae graminis. The assay can be described thus: Fungicidal activity against barley powdery mildew (BPM) disease, control value. It counts as in vivo. The following applies: for pest or weed control at 2 ppm / pest or weed control at 10 ppm / pest or weed control at 50 ppm / pest or weed control at 100 ppm: 168 h, read-out: BPM control value (C.V.).
For assay [5], the system named is Rhizoctonia solani AG-1. Put plainly: Fungicidal activity against rice sheath blight (RSB) disease, control value. The following applies: for RSB control value (C.V.): 100 ppm, rice sheath blight; for pest or weed control at 2 ppm / pest or weed control at 10 ppm / pest or weed control at 50 ppm / pest or weed control at 100 ppm: Rhizoctonia solani, AG1, in Oryza sativa, read-out: RSB control value (C.V.).

The subject of assay [6] is Pyricularia oryzae Carvara KA301. Put plainly: whole plant or invertebrate. It counts as in vivo. The following applies: for RCB control value (C.V.): rice blast; for pest or weed control at 2 ppm / pest or weed control at 10 ppm / pest or weed control at 50 ppm / pest or weed control at 100 ppm: Pyricularia oryzae, read-out: RCB control value (C.V.).
Where [7] appears, read: Botrytis, read-out: CGM control value (C.V.).
Where [8] appears, read: Botrytis, cucumber gray mold rot, read-out: CGM control value (C.V.).
The mark [9] stands for this setting: Hordeum vulgare, 2 ppm, barley powdery mildew.
[10] abbreviates: Hordeum vulgare, 10 ppm, barley powdery mildew.
Where [11] appears, read: Hordeum vulgare, 50 ppm, barley powdery mildew.
Setting [12] is: Hordeum vulgare, 100 ppm, barley powdery mildew.

Where two headings read alike, the source gives them in different places.

Turning to `CO/N=C(/C(=O)OC)c1ccccc1CON=C(C)c1cccc(C=C(Cl)Cl)c1` [Example 19, methyl-(E)-2-[[[[[2-[3-(2,2-dichlorovinyl)phenyl](1-methyl)methylidene]amino]oxy]methyl]phenyl]-2-methoxyiminoacetate], the “CGM control value (C.V.)” value in assay [1] (cucumber gray mold rot) worked out at 59%. In addition, the “WLR control value (C.V.)” value was found to be 98% in assay [2] (2 ppm, wheat leaf rust); 100% in assay [2] (10 ppm, wheat leaf rust); 100% in assay [2] (50 ppm, wheat leaf rust); 100% in assay [2] (100 ppm, wheat leaf rust). Further, the “TLB control value (C.V.)” value was 80% in assay [3] (2 ppm), 92% in assay [3] (10 ppm), 100% in assay [3] (50 ppm) and 100% in assay [3] (100 ppm). For the same compound, the “BPM control value (C.V.)” value in assay [4] (2 ppm, barley powdery mildew) is 100%; in assay [4] (10 ppm, barley powdery mildew), 100%; in assay [4] (50 ppm, barley powdery mildew) it was 100%; in assay [4] (100 ppm, barley powdery mildew), 100%. Further, the “RSB control value (C.V.)” value in assay [5] was determined as 80%. The “RCB control value (C.V.)” value in assay [6] (2 ppm) amounted to 98%; in assay [6] (10 ppm), 100%; in assay [6] (50 ppm) it was 100%; in assay [6] (100 ppm), 100%.

For `CO/N=C(/C(=O)OC)c1ccccc1COc1ccc(C=C(Br)Br)cc1Cl` [Example 63, methyl-(E)-2-(2-((4-(2,2-dibromovinyl)-2-chlorophenoxy)methyl)phenyl)-2-methoxyiminoacetate], the pest or weed control at 50 ppm in assay [1] (Botrytis, 50 ppm, read-out: CGM control value (C.V.)) was 20%; in assay [2] (Puccinia recondita, 50 ppm), 100%; in assay [3], 100%; in assay [4] (50 ppm), 100%; in assay [5], 100%; in assay [6], 100%. Moreover, the pest or weed control at 100 ppm was found to be 75% in assay [1] (setting [7]); 100% in assay [2] (Puccinia recondita, 100 ppm); 100% in assay [3]; 100% in assay [4] (100 ppm); 100% in assay [5]; 100% in assay [6]. The pest or weed control at 2 ppm stood at 100% in assay [2] (Puccinia recondita, 2 ppm); 99% in assay [3]; 100% in assay [4] (2 ppm); 90% in assay [5]; 100% in assay [6]. The pest or weed control at 10 ppm is 100% in assay [2] (Puccinia recondita, 10 ppm); 100% in assay [3]; 100% in assay [4] (10 ppm); 100% in assay [5]; 100% in assay [6].

For the compound `CO/N=C(/C(=O)OC)c1ccccc1COc1ccc(F)cc1C=C(Br)Br` [Example 79, methyl-(E)-2-(2-((2-(2,2-dibromovinyl)-4-fluorophenoxy)methyl)phenyl)-2-methoxyiminoacetate], the pest or weed control at 100 ppm in assay [1] (setting [7]) was determined as 40%; in assay [2] (Puccinia recondita, 100 ppm) it was 100%; in assay [3], 100%; in assay [4] (100 ppm), 100%; in assay [5] it was 100%; in assay [6], 100%. Also, the pest or weed control at 2 ppm in assay [2] (Puccinia recondita, 2 ppm) worked out at 95%; in assay [3], 70%; in assay [4] (2 ppm), 90%; in assay [5], 85%; in assay [6], 80%. In addition, the pest or weed control at 10 ppm amounted to 100% in assay [2] (Puccinia recondita, 10 ppm); 90% in assay [3]; 100% in assay [4] (10 ppm); 98% in assay [5]; 98% in assay [6]. The pest or weed control at 50 ppm in assay [2] (Puccinia recondita, 50 ppm) worked out at 100%; in assay [3], 98%; in assay [4] (50 ppm), 100%; in assay [5], 100%; in assay [6], 100%.

Turning to `CO/N=C(/C(=O)OC)c1ccccc1COc1ccc(C=C(Cl)Cl)cc1` [Example 3, methyl-(E)-2-(2-((4-(2,2-dichlorovinyl)phenoxy)methyl)phenyl)-2-methoxyiminoacetate], the pest or weed control at 100 ppm turned out to be 50% in assay [1] (setting [8]); 100% in assay [2] (100 ppm, wheat leaf rust); 98% in assay [3]; 95% in assay [4] (setting [12]); 60% in assay [5]; 100% in assay [6]. The pest or weed control at 2 ppm in assay [2] (2 ppm, wheat leaf rust) came to 40%; in assay [3], 0%; in assay [4] (setting [9]), 20%; in assay [6], 30%. In addition, the pest or weed control at 10 ppm is 90% in assay [2] (10 ppm, wheat leaf rust); 35% in assay [3]; 50% in assay [4] (setting [10]); 90% in assay [6]. Besides, the pest or weed control at 50 ppm in assay [2] (50 ppm, wheat leaf rust) was 100%; in assay [3], 95%; in assay [4] (setting [11]) it was 95%; in assay [6], 100%.

As for `CO/N=C(/C(=O)OC)c1ccccc1CON=C(C)c1ccc(C=C(F)F)cc1` [Example 29, methyl-(E)-2-[[[[[2-[4-(2,2-difluorovinyl)phenyl](1-methyl)methylidene]amino]oxy]methyl]phenyl]-2-methoxyiminoacetate], the “CGM control value (C.V.)” value in assay [1] (cucumber gray mold rot) stood at 24%. The “WLR control value (C.V.)” value in assay [2] (2 ppm, wheat leaf rust) was 100%; in assay [2] (10 ppm, wheat leaf rust) it was 100%; in assay [2] (50 ppm, wheat leaf rust), 100%; in assay [2] (100 ppm, wheat leaf rust), 100%. The “TLB control value (C.V.)” value in assay [3] (2 ppm), in assay [3] (10 ppm), in assay [3] (50 ppm) and in assay [3] (100 ppm) was 100% each time. Further, the “BPM control value (C.V.)” value in assay [4] (2 ppm, barley powdery mildew) turned out to be 15%; in assay [4] (10 ppm, barley powdery mildew), 60%; in assay [4] (50 ppm, barley powdery mildew), 93%; in assay [4] (100 ppm, barley powdery mildew), 100%. Also, the “RSB control value (C.V.)” value in assay [5] turned out to be 30%. Further, the “RCB control value (C.V.)” value in assay [6] (2 ppm), in assay [6] (10 ppm), in assay [6] (50 ppm) and in assay [6] (100 ppm) was 100% in each case.

With `CO/N=C(/C(=O)OC)c1ccccc1COc1ccc(C=C(Br)Br)cc1` [Example 7, methyl-(E)-2-(2-((4-(2,2-dibromovinyl)phenoxy)methyl)phenyl)-2-methoxyiminoacetate], the pest or weed control at 100 ppm in assay [1] (setting [8]) came out at 35%; in assay [2] (100 ppm, wheat leaf rust), 100%; in assay [3], 100%; in assay [4] (setting [12]), 100%; in assay [5], 100%; in assay [6], 100%. Further, the pest or weed control at 2 ppm in assay [2] (2 ppm, wheat leaf rust) was 100%; in assay [3] it was 100%; in assay [4] (setting [9]), 100%; in assay [5], 98%; in assay [6] it was 100%. Moreover, the pest or weed control at 10 ppm stood at 100% in assay [2] (10 ppm, wheat leaf rust); 100% in assay [3]; 100% in assay [4] (setting [10]); 100% in assay [5]; 100% in assay [6]. In addition, the pest or weed control at 50 ppm in assay [2] (50 ppm, wheat leaf rust) was determined as 100%; in assay [3], 100%; in assay [4] (setting [11]), 100%; in assay [5], 100%; in assay [6], 100%.
